What was measured:
Assay type in all cases: biochemical
[1] = system: Achromobacter xylosoxidans SadB (SadB), SEQ ID NO: 26; experiment: isobutanol oxidation kinetics; settings: 30° C., pH 8.8, 7.5 mM NAD
Method: (§1) As a routine practice, the crude extracts and purified proteins were assayed for butanol oxidation activity, in order to ensure that the recombinant proteins were active throughout the purification process. […] Alcohol oxidation activities were carried out in 50 mM sodium phosphate buffer at pH 8.8 and aldehyde reduction reactions were assayed in 190 mM potassium phosphate buffer at pH 7.0. Depending on the nature of reaction being carried out, the enzyme and cofactor stocks were diluted in the reaction buffers at the respective pHs. Either buffer or cell extract prepared from the proprietary E. coli strain (with no ADH plasmid) was used as the negative control for assays with purified protein and cell-free extracts, respectively.
(§2) Kinetic constants of the ADH enzymes were calculated and compared to identify those candidate ADH enzymes with the most desirable properties for the conversion of isobutyraldehyde to isobutanol in the last step of the engineered pathway for isobutanol production. The assays for determining the kinetic constants were carried out using initial rates from the assays described above. […] The concentration of a given enzyme was such that it was conducive for the measurement of initial velocities over a 1-min time course. For each enzyme, Michaelis-Menten plots were generated with a broad range of substrate concentrations. Rough estimates of KM were obtained, based on which the assays were redesigned so as to use substrate concentrations in the range 0.5 to 10 times the KM value, to be able to obtain the appropriate kinetic constants. […] When calculating the KI for isobutanol, the same reactions were carried out in the presence of varying concentrations of isobutanol (generally 0-535 mM) in the reaction (see FIG. 7, for example). Reactions with isobutanol substrate were performed at 30° C. in 50 mM Sodium phosphate buffer, pH 8.8, containing 7.5 mM NAD. The Enzyme kinetics module (Version 1.3) of SigmaPlot 11 (Systat Software, Inc.) was used to fit data to Michaelis-Menten equations and calculate the kinetic constants. The kcat/KM is derived from the individual numbers of kcat and KM and not an experimentally determined value. The ratios of the KM, KI, and kcat/KM for each candidate enzyme as compared to the same parameter for SadB are given in Table 9.
(§3) For those enzymes marked with an asterisk in Table 7, at least 3 assays were performed with separate preparations of the enzyme. All other numbers are values from either one assay or are averages from 2 assays performed with the same enzyme sample.

[2] = target: T1, Beijerinckia indica subsp. Indica ATCC 9039 ADH (BiADH), SEQ ID NO: 31 (Beijerinckia indica, UniProt B2IGW3); experiment: isobutanol oxidation kinetics; settings: 30° C., pH 8.8, 7.5 mM NAD
T1 sequence (B2IGW3 1-347): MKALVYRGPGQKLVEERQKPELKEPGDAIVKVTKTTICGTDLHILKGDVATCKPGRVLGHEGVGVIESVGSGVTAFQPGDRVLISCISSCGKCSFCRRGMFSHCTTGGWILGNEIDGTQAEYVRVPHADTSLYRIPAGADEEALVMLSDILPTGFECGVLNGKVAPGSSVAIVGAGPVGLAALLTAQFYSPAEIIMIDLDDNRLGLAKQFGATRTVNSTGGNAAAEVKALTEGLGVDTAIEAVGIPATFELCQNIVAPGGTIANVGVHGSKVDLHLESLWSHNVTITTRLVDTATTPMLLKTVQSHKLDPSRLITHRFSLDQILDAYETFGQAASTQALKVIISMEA
Method: as §1, §2, §3

[3] = target: T2, Rattus norvegicus ADH1 (RnADH1), SEQ ID NO: 32 (Rattus norvegicus, UniProt P06757); experiment: isobutyraldehyde reduction kinetics (A340, initial rates)
T2 construct: hexa-histidine (pBADHisA) (N); made in house; host or cells: E. coli (BL21-CodonPlus or a proprietary E. coli strain)
T2 sequence (P06757 whole entry): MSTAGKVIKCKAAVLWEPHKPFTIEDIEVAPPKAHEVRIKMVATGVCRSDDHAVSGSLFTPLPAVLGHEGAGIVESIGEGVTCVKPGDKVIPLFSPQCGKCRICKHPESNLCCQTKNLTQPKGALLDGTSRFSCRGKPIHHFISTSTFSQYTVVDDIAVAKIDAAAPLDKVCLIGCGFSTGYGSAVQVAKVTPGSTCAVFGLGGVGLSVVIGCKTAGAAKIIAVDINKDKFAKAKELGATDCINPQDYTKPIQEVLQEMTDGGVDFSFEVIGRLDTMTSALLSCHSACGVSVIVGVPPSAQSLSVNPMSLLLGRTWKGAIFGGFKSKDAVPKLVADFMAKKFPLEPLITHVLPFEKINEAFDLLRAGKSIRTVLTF
From the text: (§4) This example describes preparation of ADH-gene constructs for over-expression/purification and measurement of enzyme activities using a time-course assay. Horse-liver ADH (HLADH; A-6128) was purchased from Sigma. Achromobacter xylosoxidans SadB (SadB), Saccharomyces cerevisiae ADH6 (ScADH6) and ADH7 (ScADH7), Entamoeba histolytica ADH1 (EhADH1), Bos Taurus Aldehyde Reductase (BtARD), Beijerinckia indica subsp. Indica ATCC 9039 (BiADH), Clostridium beijerinckii ADH (CbADH), Rana perezi ADH8 (RpADH8), Rattus norvegicus ADH1 (RnADH1), Thermus sp. ATN1 ADH (TADH), Phenylobacterium zucineum HLK1 ADH (PzADH), Methylocella silvestris BL2 ADH (MsADH), Acinetobacter baumannii AYE ADH (AbADH), Geobacillus sp. WCH70 ADH (GbADH), Vanderwaltozyma polyspora DSM 70294 ADH (VpADH), Mucor circinelloides ADH (McADH), and Rhodococcus erythropolis PR4ADH (ReADH) were the candidates for which subclones were prepared for protein expression and purification.
as §1
(§5) Kinetic constants of the ADH enzymes were calculated and compared to identify those candidate ADH enzymes with the most desirable properties for the conversion of isobutyraldehyde to isobutanol in the last step of the engineered pathway for isobutanol production. The assays for determining the kinetic constants were carried out using initial rates from the assays described above. […] The concentration of a given enzyme was such that it was conducive for the measurement of initial velocities over a 1-min time course. For each enzyme, Michaelis-Menten plots were generated with a broad range of substrate concentrations. Rough estimates of KM were obtained, based on which the assays were redesigned so as to use substrate concentrations in the range 0.5 to 10 times the KM value, to be able to obtain the appropriate kinetic constants. […] Reactions with isobutanol substrate were performed at 30° C. in 50 mM Sodium phosphate buffer, pH 8.8, containing 7.5 mM NAD. The Enzyme kinetics module (Version 1.3) of SigmaPlot 11 (Systat Software, Inc.) was used to fit data to Michaelis-Menten equations and calculate the kinetic constants. The kcat/KM is derived from the individual numbers of kcat and KM and not an experimentally determined value.
as §3

[4] = target: T3, Clostridium beijerinckii ADH (CbADH), SEQ ID NO: 29 (Clostridium beijerinckii, UniProt P25984); experiment: as above; settings: relative to SadB
T3 construct: hexa-histidine (pBADHisA) (N); made in house; host or cells: E. coli (BL21-CodonPlus or a proprietary E. coli strain)
T3 sequence (P25984 1-351): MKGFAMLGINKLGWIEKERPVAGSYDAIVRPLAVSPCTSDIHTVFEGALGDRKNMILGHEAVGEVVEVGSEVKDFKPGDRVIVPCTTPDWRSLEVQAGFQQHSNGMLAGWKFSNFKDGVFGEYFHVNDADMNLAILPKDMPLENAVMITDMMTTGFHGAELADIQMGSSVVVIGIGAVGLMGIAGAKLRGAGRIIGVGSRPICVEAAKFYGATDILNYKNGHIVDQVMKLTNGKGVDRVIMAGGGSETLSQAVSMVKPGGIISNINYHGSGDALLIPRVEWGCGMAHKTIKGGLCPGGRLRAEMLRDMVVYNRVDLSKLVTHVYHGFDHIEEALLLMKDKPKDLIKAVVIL
From the text: as §4, §1, §5, §3

| Compound | Km [1] [mM] | kcat (isobutanol oxidation) [1] | kcat (isobutanol oxidation) [2] | Km ([3]; 30° C., pH 7.0, NADH specific, low KM precludes accurate determination, read-out: KM (Isobutanal)) [mM] | kcat ([3]; isobutyraldehyde reduction, 30° C., pH 7.0, NADH specific) [s⁻¹] | KM as a percentage of the same parameter for SadB ([3]; relative to SadB) [%] | kcat as a percentage of the same parameter for SadB ([3]; relative to SadB) [%] | kcat/KM as a percentage of the same parameter for SadB ([3]; relative to SadB) [%] | KM as a percentage of the same parameter for SadB [4] [%] | kcat as a percentage of the same parameter for SadB [4] [%] | kcat/KM as a percentage of the same parameter for SadB [4] [%] |
| --- | --- | --- | --- | --- | --- | --- | --- | --- | --- | --- | --- |
| CC(C)CO [isobutanol, 2-methylpropan-1-ol] | 24 | [Isobutanol oxidation: kcat = 2 sec^−1; | [Isobutanol oxidation: kcat = 9 sec^−1; |  |  |  |  |  |  |  |  |
| CC(C)C=O [isobutyraldehyde] |  |  |  | ≤ 0.003 | ~5 | <1 | 5 | 1588 | 150 | 113 | 81 |
